Assay results reported in PMC9607427, “Novel 7-Chloro-(4-thioalkylquinoline) Derivatives: Synthesis and Antiproliferative Activity through Inducing Apoptosis and DNA/RNA Damage” (Pharmaceuticals, 2022).

Tests used:
U2OS (osteosarcoma) = assay: Cytotoxic MTS assay, U2OS; format: cell-based, human
Summary of the method: (§1)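 IC50 values derive from MTS metabolic staining after 3 days of compound exposure, at least three biological replicates in technical duplicate; SD typically up to 20% of the mean.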

[1] = tested on: BJ (noncancerous human fibroblasts from foreskin); assay: Cytotoxic MTS assay, BJ; format: cell-based
Summary of the method: (§2)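 Compounds in DMSO are dispensed at time zero onto cells at 25,000–35,000 cells/mL. After 72 h incubation, MTS is added for 1–4 h and optical density at 490 nm is read. IC50 marks 50% cell growth inhibition.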

[2] = tested on: BJLD (human lung fibroblast doxorubicin-resistant); assay: Cytotoxic MTS assay, BJLD; format: cell-based
Summary of the method: as §1

[3] = tested on: MRC-5 (noncancerous human lung fibroblasts); assay: Cytotoxic MTS assay, MRC-5; format: cell-based
Summary of the method: as §2

CCRF-CEM lymphoblasts = assay: BrDU incorporation analysis (DNA synthesis); format: cell-based, human; settings: 24 h, 5 × IC50 (second value of cell)
Method: The effect of compounds on cell cycle distribution was determined to gain insights into the mechanism of its antiproliferative activity. […] For example, as compared with control, the percentage of cells in G2/M phases was increased by treatment with 5 × IC50 μM of compounds for 24 h (Table 4). […] As shown in (Table 4), there was a marked increase in the sub-G1 from 2.91 in untreated cells. 5-Bromo-2-deoxyuridine (BrDU) is incorporated into newly synthesized DNA, and 5-bromouridine (BrU) pulse labeling is therefore commonly used as a proliferation marker. Low BrDU and BrU incorporation into the DNA or RNA, respectively, of treated cells with all compounds at 5 × IC50 reflected inhibition of DNA and RNA synthesis, indicating irreversible apoptotic changes. The percentage of […] cells incorporating 5-bromouridine is proportional to the transcriptional activity of CCRF-CEM cells. Cells were cultivated and processed as described in the previous method. Before harvesting, BrDU 10 µM was added to the cells for pulse-labeling for 30 min. Then, cells were washed by PBS and fixed with −20 °C cold 70% ethanol and stored in a freezer overnight. Before analysis, the samples were incubated on ice for 30 min, washed once with PBS, and re-suspended in 2 M HCl for 30 min at rt to denature their DNA. Following neutralization with a 0.1 M Na2B4O7 (borax) solution, the cells were washed with PBS containing 0.5% Tween-20 and 1% BSA. Next, staining with primary anti-BrDU antibody (Exbio) was performed for 30 min at rt in the dark. Cells were then washed with PBS and stained with secondary anti-mouse-FITC antibody (Sigma) at rt in the dark. After another wash with PBS and incubation with propidium iodide (0.1 mg × mL^−1) and RNase A (0.5 mg × mL^−1) for 1 h at rt in the dark, cells were analyzed by flow cytometry using a 488 nm single beam laser (FACSCalibur, Becton Dickinson, Franklin Lakes, NJ, USA).

[4] = tested on: K562-TAX (chronic myeloid leukemia paclitaxel-resistant subline); assay: Cytotoxic MTS assay, K562-TAX; format: cell-based, human
Summary of the method: as §1

Row | Structure (SMILES) | IC50 (U2OS (osteosarcoma)) [µM] | IC50 [1] [µM] | IC50 [2] [µM] | IC50 [3] [µM] | DNA Synthesis (% positive of cells) (CCRF-CEM lymphoblasts) [%] | IC50 [4] [µM]
1 | COc1ccc(OC)c(C(=O)OCCS(=O)(=O)c2cc[n+]([O-])c3cc(Cl)ccc23)c1 [Compound 65, 2-[(N-Oxide 7-chloroquinolin-4-yl)sulfonyl]ethyl-2,5-dimethoxybenzoate] | 7.67 | 22.2 | 9.68 | 4.95 | 19.73 | 6.65
2 | COc1cc(OC)c(C(=O)OCCS(=O)(=O)c2cc[n+]([O-])c3cc(Cl)ccc23)cc1OC [Compound 66, 2-[(N-Oxide 7-chloroquinolin-4-yl)sulfonyl]ethyl-2,4,5-trimethoxybenzoate] | 8.25 | 21.2 | 11 | 5.07 | 9.68 | 6.25
3 | Cc1ccc([N+](=O)[O-])c(C(=O)OCCS(=O)(=O)c2cc[n+]([O-])c3cc(Cl)ccc23)c1 [Compound 70, 2-[(N-Oxide 7-chloroquinolin-4-yl)sulfonyl]ethyl-5-methyl-2-nitrobenzoate] | 9.92 | 25.7 | > 50 | 22.9 | 4.88 | 6.89
4 | COc1ccccc1C(=O)OCCS(=O)(=O)c1cc[n+]([O-])c2cc(Cl)ccc12 [Compound 68, 2-[(N-Oxide 7-chloroquinolin-4-yl)sulfonyl]ethyl-2-methoxybenzoate] | 6.9 | 24.6 | 10.1 | 4.92 | 7.18 | 4.63
5 | COc1ccc(C(=O)OCCS(=O)(=O)c2cc[n+]([O-])c3cc(Cl)ccc23)cc1 [Compound 63, 2-[(N-Oxide 7-chloroquinolin-4-yl)sulfonyl]ethyl-4-methoxybenzoate] | 5.71 | 23.9 | 12.1 | 4 | 13.54 | 4.71
6 | O=C(OCCS(=O)(=O)c1cc[n+]([O-])c2cc(Cl)ccc12)c1ccc(C(F)(F)F)cc1 [Compound 72, 2-[(N-Oxide 7-chloroquinolin-4-yl)sulfonyl]ethyl-4-(trifluoromethyl)benzoate] | 18.4 | 28.7 | 27 | 24.4 | 4.35 | 6.06
7 | COc1ccc(C(=O)OCCS(=O)(=O)c2cc[n+]([O-])c3cc(Cl)ccc23)cc1[N+](=O)[O-] [Compound 69, 2-[(N-Oxide 7-chloroquinolin-4-yl)sulfonyl]ethyl-4-methoxy-3-nitrobenzoate] | 10.3 | 27.2 | 19.5 | 8.41 | 4.22 | 7.32
